Data on 7 compounds can be found in patent US10183039B2, “Methods for the production of collagen IV” (Vanderbilt University, priority 2013, dated 2019).

For test [1], the system named is PFHR-9 basement membrane collagen IV. The experiment in a line: HEK293 cell overlay on uncrosslinked PFHR-9 collagen IV networks. The note with it: HEK293 cells plated on uncrosslinked PFHR-9 basement membrane; PHG 50 μM where present. Format: cell-based, mouse. The protocol: FIGS. 5A-D—Peroxidasin uniquely crosslinks native collagen IV networks. (FIG. 5A) Experimental design of ‘overlay’ experiments. PFHR-9 cells were grown in the presence of phloroglucinol (PHG; 50 μM) to deposit uncrosslinked collagen IV (Col IV) networks. The cells were then removed, and the basement membrane was extracted with 4 M guanidine (Gdn) to inactivate endogenous peroxidasin. Cells stably transfected with human peroxidasin (PXDN) or untransfected HEK293 cells (WT HEK) were plated on top of the PFHR9 basement membrane, which was subsequently analyzed for collagen IV crosslink content. (FIG. 5B) Collagen IV-sulfilimine bond formation in the indicated experimental conditions as shown by stained SDS-PAGE gel. Two (WT HEK cells) or three (PXDN, with or without PHG) out of five independent experiments are shown. MW, molecular weight. (FIG. 5C) Coomassie blue-stained gel of collagen IVNC1 hexamers isolated from uncrosslinked PFHR-9 basement membrane overlaid with HEK293T cells transiently transfected with human peroxidasin cDNA, mouse myeloperoxidase cDNA (MPO), mouse lactoperoxidase cDNA (LPO) or empty vector (Mock). […]
PFHR-9 cells were grown in the presence of 50 μM phloroglucinol to produce noncrosslinked collagen IV. […] Plates were incubated for 24-48 h, and collagen IV was analyzed for NC1 crosslink formation. […]

For test [2], the target named is peroxidase (Drosophila melanogaster, UniProt Q9VZZ4). The note with it: Nelson et al., 1994; read-out: half-maximum inhibitory concentration (IC50); cited from earlier work.
peroxidase, sequence (Q9VZZ4 24-1527): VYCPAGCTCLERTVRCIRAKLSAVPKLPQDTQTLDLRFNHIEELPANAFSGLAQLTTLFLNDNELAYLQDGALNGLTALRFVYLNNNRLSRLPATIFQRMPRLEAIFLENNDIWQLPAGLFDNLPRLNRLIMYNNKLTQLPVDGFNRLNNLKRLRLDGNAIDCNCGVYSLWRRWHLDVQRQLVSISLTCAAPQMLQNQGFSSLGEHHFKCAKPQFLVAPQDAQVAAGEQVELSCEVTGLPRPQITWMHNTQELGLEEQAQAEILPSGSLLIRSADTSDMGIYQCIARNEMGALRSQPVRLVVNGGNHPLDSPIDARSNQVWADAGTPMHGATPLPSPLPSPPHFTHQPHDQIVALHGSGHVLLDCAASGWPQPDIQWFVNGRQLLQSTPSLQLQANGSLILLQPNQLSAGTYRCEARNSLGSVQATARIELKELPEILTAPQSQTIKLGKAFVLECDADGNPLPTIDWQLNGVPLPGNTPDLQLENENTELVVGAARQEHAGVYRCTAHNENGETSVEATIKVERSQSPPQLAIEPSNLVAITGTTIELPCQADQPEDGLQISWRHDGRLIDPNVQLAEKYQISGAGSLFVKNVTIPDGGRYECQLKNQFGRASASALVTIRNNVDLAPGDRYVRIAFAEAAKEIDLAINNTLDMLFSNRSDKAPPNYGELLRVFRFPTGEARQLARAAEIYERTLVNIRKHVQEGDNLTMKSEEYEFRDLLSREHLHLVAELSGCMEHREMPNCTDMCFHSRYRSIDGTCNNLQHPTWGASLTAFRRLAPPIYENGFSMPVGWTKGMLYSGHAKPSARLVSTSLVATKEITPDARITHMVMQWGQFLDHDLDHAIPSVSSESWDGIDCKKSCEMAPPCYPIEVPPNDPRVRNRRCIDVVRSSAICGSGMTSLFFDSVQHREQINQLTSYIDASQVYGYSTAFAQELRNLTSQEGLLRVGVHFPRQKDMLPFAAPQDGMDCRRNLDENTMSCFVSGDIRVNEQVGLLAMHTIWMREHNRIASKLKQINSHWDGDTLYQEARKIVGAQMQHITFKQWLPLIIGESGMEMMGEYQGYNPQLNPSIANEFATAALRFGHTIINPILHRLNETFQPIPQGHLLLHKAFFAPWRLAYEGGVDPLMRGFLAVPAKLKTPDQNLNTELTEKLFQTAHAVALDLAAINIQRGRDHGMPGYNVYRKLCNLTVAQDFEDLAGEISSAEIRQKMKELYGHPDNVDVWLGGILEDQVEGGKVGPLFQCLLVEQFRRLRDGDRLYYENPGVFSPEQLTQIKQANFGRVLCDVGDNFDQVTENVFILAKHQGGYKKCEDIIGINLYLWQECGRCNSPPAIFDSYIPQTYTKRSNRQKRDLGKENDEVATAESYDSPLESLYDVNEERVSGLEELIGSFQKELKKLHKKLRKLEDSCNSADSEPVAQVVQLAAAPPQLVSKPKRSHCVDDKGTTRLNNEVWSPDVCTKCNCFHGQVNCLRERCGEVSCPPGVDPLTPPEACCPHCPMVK
The subject of test [3] is Drosophila eggs. The note with it: PHG in the food, excess dietary (100 μM) Br^−.
Protocol: All eggs deposited in a quadrant of a 55 mm laying cage were moved to a fresh phytagel surface and oriented with dorsal appendages facing the surface for quantitation of the aspect ratio which is calculated by dividing the anterior-posterior axis length by the egg's diameter. Eggs were collected after 168 hours of exposure to standard or experimental diets.
(FIG. 18B) Br^− concentration effect on egg aspect ratio, in single age-matched cohort of w^1118 flies, over time. Vertical axis represents mean aspect ratio (±S.E.M). […] Inset plotted as mean±95% C.I. and significance calculated with the Kruskall-Wallis test. […] PHG was administered in the food. All wild-type (w^1118) mothers were from the same cohort and reared identically, then divided into sub-cohorts for exposure to the indicated experimental diet.
The test system of test [4] is PFHR-9 cells. The experiment in a line: Collagen IV sulfilimine crosslink formation in PFHR-9 cell culture (NC1 hexamer, SDS-PAGE). It is filed as cell-based, mouse. Conditions: inhibitor present during cellular deposition of basement membrane; FIG. 2A: PHG 50 μM, MMI 1 mM, KI 10 mM, 3-AT 10 mM, BAPN 500 μM, putrescine 2.5 mM.
For test [5], the target named is T1, myeloperoxidase (Homo sapiens, UniProt P05164).
T1 sequence (P05164 49-745): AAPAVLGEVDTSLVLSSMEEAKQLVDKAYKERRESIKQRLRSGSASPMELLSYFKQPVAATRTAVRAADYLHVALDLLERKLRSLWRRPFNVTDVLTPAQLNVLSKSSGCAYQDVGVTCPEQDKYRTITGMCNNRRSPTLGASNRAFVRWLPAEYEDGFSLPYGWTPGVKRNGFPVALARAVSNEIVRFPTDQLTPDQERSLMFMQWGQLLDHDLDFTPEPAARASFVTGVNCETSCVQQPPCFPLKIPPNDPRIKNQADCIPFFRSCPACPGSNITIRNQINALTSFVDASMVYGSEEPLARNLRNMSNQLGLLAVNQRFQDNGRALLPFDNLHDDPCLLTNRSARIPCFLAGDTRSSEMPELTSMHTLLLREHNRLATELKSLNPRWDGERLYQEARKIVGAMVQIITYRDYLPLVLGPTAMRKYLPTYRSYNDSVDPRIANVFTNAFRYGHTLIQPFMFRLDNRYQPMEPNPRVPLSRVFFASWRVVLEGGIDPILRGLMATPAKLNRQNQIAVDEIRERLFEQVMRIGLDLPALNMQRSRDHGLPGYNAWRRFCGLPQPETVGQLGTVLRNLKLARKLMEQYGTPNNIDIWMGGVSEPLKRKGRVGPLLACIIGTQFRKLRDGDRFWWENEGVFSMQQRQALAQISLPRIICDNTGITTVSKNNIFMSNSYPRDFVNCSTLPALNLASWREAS
The note with it: cited from earlier work.

The target of test [6] is T2, thyroid peroxidase (Homo sapiens, UniProt P07202).
T2 sequence (P07202 19-933): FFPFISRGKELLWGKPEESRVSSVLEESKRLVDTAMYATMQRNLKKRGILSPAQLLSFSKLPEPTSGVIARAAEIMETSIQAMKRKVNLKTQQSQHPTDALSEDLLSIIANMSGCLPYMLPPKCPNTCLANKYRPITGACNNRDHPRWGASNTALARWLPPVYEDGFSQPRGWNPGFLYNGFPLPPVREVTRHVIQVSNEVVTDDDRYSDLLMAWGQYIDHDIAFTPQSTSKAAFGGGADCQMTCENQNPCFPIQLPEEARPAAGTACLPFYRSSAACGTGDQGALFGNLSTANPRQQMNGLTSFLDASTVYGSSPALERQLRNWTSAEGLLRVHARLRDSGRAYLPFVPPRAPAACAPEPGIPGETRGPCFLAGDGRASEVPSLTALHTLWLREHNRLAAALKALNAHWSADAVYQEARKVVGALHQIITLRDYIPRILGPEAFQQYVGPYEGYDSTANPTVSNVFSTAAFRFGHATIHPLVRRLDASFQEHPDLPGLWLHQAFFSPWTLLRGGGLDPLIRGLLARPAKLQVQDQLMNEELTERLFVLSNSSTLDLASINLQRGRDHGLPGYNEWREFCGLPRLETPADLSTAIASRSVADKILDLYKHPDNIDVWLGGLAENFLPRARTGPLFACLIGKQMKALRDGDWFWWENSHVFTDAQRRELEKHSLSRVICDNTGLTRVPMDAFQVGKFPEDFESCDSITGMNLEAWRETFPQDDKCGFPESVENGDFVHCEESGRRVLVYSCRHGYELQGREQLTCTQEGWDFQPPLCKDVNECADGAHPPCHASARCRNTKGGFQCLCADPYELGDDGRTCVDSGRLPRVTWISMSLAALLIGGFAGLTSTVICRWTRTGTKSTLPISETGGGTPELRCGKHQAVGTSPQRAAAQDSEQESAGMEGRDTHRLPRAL
The note with it: cited from earlier work.

The test system of test [7] is collagen IV NC1 hexamer. The experiment in a line: Purified peroxidases reacted with uncrosslinked NC1 hexamer and H2O2. Format: biochemical, mouse. Conditions: 16 nM enzyme, 500 nM NC1 hexamer, 10 μM H2O2, 1×PBS. As for the experimental part:
(§1) (FIG. 3A) SDS-PAGE of reactions consisting of 16 nM purified human peroxidasin (PXDN), 500 nM monomeric NC1 hexamer (3 μM potential crosslinks) and 10 μM H2O2 in 1×PBS. Control reactions without H2O2 or in the presence of the peroxidase inhibitor phloroglucinol (PHG; 50 μM) were also conducted. D represents crosslinked dimeric NC1 subunits, and M denotes uncrosslinked monomeric subunits. MW, molecular weight. (FIG. 3B) Coomassie blue-stained gel after SDS-PAGE of collagen IVNC1 hexamer is shown to illustrate relative amounts of sulfilimine-crosslinked dimeric (D) and uncrosslinked monomeric (M) subunits after incubation of uncrosslinked PFHR-9 basement membranes in varying buffer halide concentrations (Br— or Cl— as K+ salt) with or without 1 mM H2O2. (FIG. 3C) PXDN-mediated hypohalous acid (HOX) production expressed as nmol hypohalous acid generated per nmol enzyme per min, measured in 1×PBS plus 100 μM NaBr. Values represent mean±s.e.m. (n=3). (FIG. 3D) HOCl production measured directly in 1×PBS without added Br—. Values denote mean±s.e.m. (n=4). […] (FIG. 3E) HOX production, measured in nmol HOX generated per nmol enzyme per min for myeloperoxidase (MPO), eosinophil peroxidase (EPO) or LPO in 1×PBS plus 100 μM NaBr. Values represent mean±s.e.m. (n=3).
PHG, phloroglucinol; MW, molecular weight.
If peroxidasin uses hypohalous acids as intermediates to form sulfilimine bonds, these intermediates should recapitulate the reaction when directly added to purified, uncrosslinked collagen IV NC1 hexamer. […] Alternatively, other peroxidasesis provided to form reactive hypohalous acids.

Test [8] in a line: Hypohalous acid production by peroxidases (taurine haloamine trapping). Conditions: for hypohalous acid formation: 1×PBS plus 100 μM NaBr or without added Br—; for HOCl production: 1×PBS without added Br— (FIG. 3D). Format: biochemical. The protocol:
as §1
Hypohalous acids were trapped as stable taurine haloamines, which oxidize tetramethylbenzidine to yield a colorimetric measure of hypohalous acid concentration and production (Dypbukt et al., 2005).
Animal heme peroxidases, such as peroxidasin, myeloperoxidase, eosinophil peroxidase and lactoperoxidase, catalyze oxidative reactions using distinct halogenation and peroxidase cycles (Obinger, 2006). Both begin with hydrogen peroxide oxidation of the prosthetic heme iron to form an intermediate denoted compound I (Obinger, 2006). Compound I may oxidize halides into their respective hypohalous acids (or related oxidants in equilibrium), which may directly or indirectly halogenate susceptible moieties. Alternatively, compound I undergoes sequential reduction to form single electron-free radicals of energetically favorable substrates in the peroxidase cycle. Both pathways eventually regenerate reduced, native enzyme (Obinger, 2006). To determine whether peroxidasin forms sulfilimine bonds using a halogenation cycle, the inventors first tested whether peroxidasin crosslinks collagen IV in the absence of halides.

For test [9], the target named is horseradish peroxidase (HRP) (Armoracia rusticana, UniProt P00433). The note with it: with H2O2; cited from earlier work.
horseradish peroxidase (HRP), sequence (P00433 31-338 limits assumed): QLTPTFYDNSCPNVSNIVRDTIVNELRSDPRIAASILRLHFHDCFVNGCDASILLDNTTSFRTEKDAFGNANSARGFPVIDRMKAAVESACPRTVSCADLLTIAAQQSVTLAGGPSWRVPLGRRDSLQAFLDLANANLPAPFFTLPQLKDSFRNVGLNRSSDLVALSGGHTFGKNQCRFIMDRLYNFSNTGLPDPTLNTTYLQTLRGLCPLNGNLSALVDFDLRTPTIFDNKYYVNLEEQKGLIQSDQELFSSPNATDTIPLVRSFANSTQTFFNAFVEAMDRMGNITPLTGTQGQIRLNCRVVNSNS

One may read the Ki as a measure of affinity in units of concentration, obtained from inhibition or displacement. As a reminder, the kinact is the rate constant of inactivation at saturating inhibitor.

Like-named read-outs stand apart in the source and are kept apart here.

Consider `Oc1cc(O)cc(O)c1` [phloroglucinol, reference compound], for which, in test [1], the “crosslinking of native collagen IV network by overlaid cells” value is on record as “failed to crosslink collagen IV”. Further, in test [2], the IC50 was 0.5 µM. Besides, the “egg aspect ratio under peroxidasin inhibition” value in test [3] is reported as “dose-dependent suppression in egg aspect ratio”; in test [3] (listed as PHG), “dose-dependent reduction in the exaggerated egg elongation”. Besides, the “formation of collagen IV crosslinks” value in test [4] is “prevented formation of collagen IV crosslinks”.
For `Cn1cc[nH]c1=S` [methimazole], the inhibition of myeloperoxidase in test [5] (3 mM) was 70%. For the same compound, the “formation of collagen IV crosslinks” value in [4] was “prevented formation of collagen IV crosslinks”. The IC50 in test [6] was 0.8 µM.
Consider “eosinophil peroxidase: animal heme peroxidase used as comparator”, for which, in test [7], the “formation of sulfilimine crosslinks in NC1 hexamer” value (shortened to “formation of sulfilimine crosslinks”) is “formed sulfilimine crosslinks in collagen IV”. For the same compound, the hypohalous acid formation entry in [8] was “primarily yielded hypobromous acid”.
As to “peroxidasin: heterologously expressed and purified human peroxidasin, a basement membrane heme peroxidase”, the “formation of sulfilimine crosslinks” value in test [7] is listed as “robust formation of crosslinked dimeric subunits”. Further, in test [1], the “crosslinking of native collagen IV network by overlaid cells” value is “Only peroxidasin formed sulfilimine bonds in collagen IV”. Also, in test [8], the hypohalous acid formation result is “formed hypobromous and hypochlorous acid at modest rates with a preference for bromide”; the HOCl production result is on record as “significantly greater than that mediated by lactoperoxidase”.
In the case of `[N-]=[N+]=[N-]` [azide], in [9], the Ki is 1470 µM and the kinact was 0.69 min⁻¹.
On to `Nc1nc[nH]n1` [3-aminotriazole], for which the inhibition of myeloperoxidase result in test [5] (10 mM) is listed as “near-complete inhibition”. In [4], the “formation of collagen IV crosslinks” value is given as “prevented formation of collagen IV crosslinks”. Also, the “inhibition of thyroid peroxidase” value in [6] (2 mM) was “near-complete inhibition”.
In the case of “lactoperoxidase: animal heme peroxidase used as comparator”, in [7], the “formation of sulfilimine crosslinks” value is given as “poorly catalyzed crosslink formation”. In [8], the hypohalous acid formation result was “formed neither hypohalous acid” and the HOCl production result is on record as “not statistically different from zero”.
